From ChEMBL document CHEMBL1201862, “PubChem BioAssay data set” (2004) come the findings set out here.

Test systems include Hs-578T; HCT-15; HOP-92; TK-10; SK-OV-3; HOP-62; SNB-19; RXF 393; KM12; ACHN; NCI/ADR-RES; LOX IMVI; A498; SF-295; OVCAR-3; UACC-257; SF-268; OVCAR-4; OVCAR-5.
Assay in all cases: NCI tumour cell line growth inhibition, 48 h

SMILES strings stand for the structures.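 The compound was tested at five concentrations on cells cultured in 96-well plates, with a 48-hour exposure period. GI50: concentration for 50% inhibition of growth.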 The source made the active and inactive calls. Cut-off read from the data, not from the text of the source: active = GI50 up to about 1.1 µM and inactive = higher.

With `COc1cc2c(cc1OCCCNC(=O)c1cc3ccccc3[nH]1)N=C[C@@H]1CCCN1C2=O`, the GI50 in the assay on Hs-578T was 0.23 µM (active); in the assay with HCT-15, 0.897 µM; in the assay with HOP-92, 7.43 µM (inactive); in the assay on TK-10, 0.359 µM (active); in the assay with SK-OV-3, 1.6 µM (inactive); in the assay on HOP-62, 0.326 µM (active). For the same compound, the GI50 is 0.445 µM (active) with SNB-19; 0.0966 µM (active) in the assay on RXF 393; 0.241 µM (active) in the assay with KM12; 0.347 µM (active) with ACHN; 2.04 µM (inactive) in the assay with NCI/ADR-RES; 0.421 µM (active) in the assay on LOX IMVI. Further, the GI50 in the assay on A498 was 0.0527 µM (active); in the assay on SF-295, 0.405 µM (active); in the assay with OVCAR-3, 0.306 µM (active); with UACC-257 it was 0.448 µM (active); with SF-268 it was 0.082 µM (active); in the assay on OVCAR-4 it was 0.403 µM (active). Moreover, the GI50 in the assay with OVCAR-5 was 0.352 µM (active).

On to `CC(C)(C)c1cc(C(P(=O)(c2ccccc2)c2ccccc2)P(=O)(c2ccccc2)c2ccccc2)cc(C(C)(C)C)c1O`, for which the GI50 in the assay with Hs-578T is 2.48 µM (inactive); with HCT-15 it was 2.96 µM; in the assay with HOP-92 it was 2.43 µM (inactive); in the assay on TK-10 it was 4.68 µM (inactive); in the assay with SK-OV-3, 3.11 µM (inactive); in the assay on HOP-62, 2.56 µM (inactive). In addition, the GI50 is 3.44 µM (inactive) with SNB-19; 3.19 µM (inactive) with RXF 393; 1.8 µM (inactive) with KM12; 3.18 µM (inactive) with ACHN; 2.12 µM (inactive) in the assay with NCI/ADR-RES; 1.92 µM (inactive) with LOX IMVI. For the same compound, the GI50 with A498 is 2.74 µM (inactive); in the assay on SF-295, 1.92 µM (inactive); in the assay with OVCAR-3 it was 2.3 µM (inactive); in the assay with UACC-257, 2.04 µM (inactive); in the assay with SF-268, 2.93 µM (inactive); in the assay with OVCAR-4 it was 3.35 µM (inactive). Besides, the GI50 in the assay on OVCAR-5 is 2.56 µM (inactive).

In the case of `CN1C(=O)C(O)CC1c1ccc(C(F)(F)F)cc1` (stereo not given), the GI50 in the assay with Hs-578T was > 100 µM (inactive); with HCT-15, over 100 µM; with HOP-92, > 100 µM (inactive); with TK-10 it was > 100 µM (inactive); with SK-OV-3, > 100 µM (inactive); with HOP-62, > 100 µM (inactive). In addition, the GI50 in the assay with SNB-19, in the assay with RXF 393, with KM12, in the assay on ACHN, in the assay with NCI/ADR-RES and in the assay on LOX IMVI was > 100 µM (inactive) in each case. In addition, the GI50 was > 100 µM (inactive) in the assay on A498; > 100 µM (inactive) in the assay with SF-295; > 100 µM (inactive) in the assay on OVCAR-3; 44.1 µM (inactive) in the assay on UACC-257; > 100 µM (inactive) in the assay on SF-268; > 100 µM (inactive) with OVCAR-4. The GI50 in the assay with OVCAR-5 is > 100 µM (inactive).

As for `CC(C)(C)C1=CC(=CC=C2C=CN(CCCCCCCCCCCO)C=C2)C=C(C(C)(C)C)C1=O`, the GI50 with Hs-578T was 1.87 µM (inactive); in the assay on HCT-15, 2.6 µM; in the assay on HOP-92, 1.83 µM (inactive); in the assay with TK-10 it was 1.5 µM (inactive); with SK-OV-3, 2.16 µM (inactive); in the assay on HOP-62, 1.74 µM (inactive). Moreover, the GI50 in the assay on SNB-19 is 1.58 µM (inactive); in the assay with RXF 393, 0.9 µM (active); in the assay on KM12, 1.83 µM (inactive); in the assay on ACHN, 2.19 µM (inactive); in the assay with NCI/ADR-RES it was 2.96 µM (inactive); in the assay with LOX IMVI, 0.735 µM (active). In addition, the GI50 in the assay with A498 was 3.01 µM (inactive); with SF-295, 1.38 µM (inactive); in the assay on OVCAR-3, 1.01 µM (active); in the assay with UACC-257, 1.87 µM (inactive); in the assay with SF-268 it was 1.57 µM (inactive); in the assay with OVCAR-4, 1.76 µM (inactive). For the same compound, the GI50 in the assay with OVCAR-5 is 2.48 µM (inactive).

Turning to `CCNc1cc2oc(=O)cc(C(F)(F)F)c2cc1C`, the GI50 was > 100 µM (inactive) in the assay with Hs-578T; over 100 µM in the assay on HCT-15; 64.4 µM (inactive) with HOP-92; > 100 µM (inactive) in the assay with TK-10; > 100 µM (inactive) in the assay with SK-OV-3; > 100 µM (inactive) in the assay on HOP-62. Besides, the GI50 in the assay on SNB-19, in the assay with RXF 393, in the assay on KM12, in the assay on ACHN, in the assay on NCI/ADR-RES and in the assay on LOX IMVI was > 100 µM (inactive) in each case. The GI50 in the assay on A498, in the assay on SF-295, in the assay with OVCAR-3, with UACC-257, in the assay with SF-268 and in the assay with OVCAR-4 was > 100 µM (inactive) each time. Also, the GI50 in the assay on OVCAR-5 is > 100 µM (inactive).

`CC(C)NC1(C(N)=O)CCN(Cc2ccccc2)CC1`: the GI50 in the assay on Hs-578T was > 100 µM (inactive); in the assay on HCT-15, over 100 µM; in the assay on HOP-92, > 100 µM (inactive); with TK-10, > 100 µM (inactive); in the assay with SK-OV-3 it was > 100 µM (inactive); in the assay with HOP-62, > 100 µM (inactive). Moreover, the GI50 with SNB-19, in the assay on RXF 393, with KM12, in the assay on ACHN, in the assay on NCI/ADR-RES and in the assay with LOX IMVI was > 100 µM (inactive) throughout. The GI50 with A498, with SF-295, in the assay on OVCAR-3, with UACC-257, in the assay on SF-268 and in the assay with OVCAR-4 was > 100 µM (inactive) throughout. The GI50 in the assay on OVCAR-5 was > 100 µM (inactive).

In the case of `CCCCC[C@@H]1OCO[C@@]2(C)/C=C(C)\C=C/C(=O)O[C@H]([C@@H](C)[C@@H](O)[C@H](C)[C@@]3(O)C[C@@H](O[C@H]4C[C@@H](O)[C@H](O)[C@@H](C)O4)[C@H](C)[C@@H](C)O3)[C@@H](OC)/C=C\C=C(\C)C[C@@H]1[C@@H]2O` (stereo in doubt), the GI50 was 1.2 µM (inactive) in the assay with Hs-578T; 0.5 µM in the assay with HCT-15; < 0.005 µM (active) with HOP-92; 0.119 µM (active) in the assay with TK-10; 1.35 µM (inactive) in the assay on SK-OV-3; 0.0573 µM (active) with HOP-62. Moreover, the GI50 with SNB-19 was 0.0995 µM (active); in the assay on RXF 393, < 0.005 µM (active); in the assay on KM12, < 0.005 µM (active); with ACHN, < 0.005 µM (active); in the assay with NCI/ADR-RES it was 0.5 µM (active); with LOX IMVI, < 0.005 µM (active). Further, the GI50 in the assay with A498, in the assay on SF-295, in the assay with OVCAR-3, with UACC-257, in the assay with SF-268 and with OVCAR-4 was < 0.005 µM (active) in each case. Further, in the assay on OVCAR-5, the GI50 was < 0.005 µM (active).

As for `Clc1cc(Cl)cc(C2ON=C(c3ccccc3)N2C23CC4CC(CC(C4)C2)C3)c1` (stereo not given), the GI50 is > 10 µM (inactive) in the assay on Hs-578T; over 10 µM with HCT-15; 0.643 µM (active) in the assay with HOP-92; > 10 µM (inactive) with TK-10; > 10 µM (inactive) with SK-OV-3; > 10 µM (inactive) in the assay with HOP-62. In addition, the GI50 in the assay with SNB-19, in the assay with RXF 393, in the assay with KM12, in the assay on ACHN, in the assay with NCI/ADR-RES and with LOX IMVI was > 10 µM (inactive) throughout. Also, the GI50 in the assay with A498, in the assay on SF-295, in the assay on OVCAR-3, in the assay with UACC-257, in the assay on SF-268 and with OVCAR-4 was > 10 µM (inactive) each time. Moreover, in the assay with OVCAR-5, the GI50 is > 10 µM (inactive).

Take `COC(=O)c1cc(C)n(CN(Cc2ccccc2)Cn2nc(C(=O)OC)cc2C)n1`: the GI50 in the assay on Hs-578T is > 100 µM (inactive); in the assay on HCT-15 it was over 40.7 µM; in the assay on HOP-92 it was > 73.5 µM (inactive); in the assay on TK-10, > 100 µM (inactive); with SK-OV-3, > 100 µM (inactive); in the assay on HOP-62, > 100 µM (inactive). Further, the GI50 is > 100 µM (inactive) with SNB-19; > 53.7 µM (inactive) in the assay on RXF 393; > 100 µM (inactive) with KM12; > 43.1 µM (inactive) in the assay with ACHN; > 100 µM (inactive) with NCI/ADR-RES; > 100 µM (inactive) with LOX IMVI. The GI50 in the assay with A498 is > 100 µM (inactive); with SF-295, > 79.8 µM (inactive); with OVCAR-3, > 100 µM (inactive); in the assay with UACC-257 it was > 100 µM (inactive); in the assay with SF-268, > 89.9 µM (inactive); in the assay with OVCAR-4, > 64.1 µM (inactive). Moreover, in the assay on OVCAR-5, the GI50 was > 82.2 µM (inactive).

Take `COC(=O)C(=O)C(C(=O)C(=O)Nc1nc2ccc(C)cc2s1)c1nc2ccc([N+](=O)[O-])cc2nc1O` (stereo not given): the GI50 in the assay on Hs-578T is 93.1 µM (inactive); in the assay on HCT-15 it was over 100 µM; in the assay on HOP-92, 65.2 µM (inactive); in the assay on TK-10, > 100 µM (inactive); with SK-OV-3, > 100 µM (inactive); in the assay with HOP-62, > 100 µM (inactive). Also, the GI50 in the assay with SNB-19 was 72.6 µM (inactive); with RXF 393 it was > 100 µM (inactive); with KM12, > 100 µM (inactive); with ACHN, > 100 µM (inactive); in the assay with NCI/ADR-RES, > 100 µM (inactive); in the assay with LOX IMVI it was > 100 µM (inactive). In addition, the GI50 was > 100 µM (inactive) in the assay on A498; > 100 µM (inactive) in the assay with SF-295; > 100 µM (inactive) with OVCAR-3; > 100 µM (inactive) in the assay on UACC-257; > 100 µM (inactive) in the assay on SF-268; > 10 µM (inactive) in the assay on OVCAR-4. Further, the GI50 with OVCAR-5 was > 100 µM (inactive).
